Laboratory results from patent US12649750B2, “Macrocyclic compounds, compositions, and methods of using thereof” (Sionna Therapeutics Inc., priority 2022, dated 2026).

What was measured:
[1] = target: T1, NBD1 (Homo sapiens, UniProt P13569); test: Aggregation analysis using differential static light scattering (DSLS), thermal stability of NBD1 (ΔTagg); type: binding; details: ΔTagg versus DMSO control, NBD1 0.2 mg/ml
T1 construct: Purified recombinant NBD1 was produced using previously described methods; made in house
T1 sequence (P13569 423-646 limits assumed): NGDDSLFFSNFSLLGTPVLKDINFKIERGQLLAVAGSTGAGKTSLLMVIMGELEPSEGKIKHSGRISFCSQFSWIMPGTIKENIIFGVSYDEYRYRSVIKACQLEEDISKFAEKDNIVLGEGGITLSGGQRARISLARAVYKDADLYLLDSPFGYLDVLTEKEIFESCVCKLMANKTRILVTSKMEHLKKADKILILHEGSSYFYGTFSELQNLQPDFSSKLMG
Summary of the method: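 Purified recombinant NBD1 at 0.2 mg/ml in 50 mM Tris-HCl, 150 mM NaCl, 5 mM MgCl2, 2 mM ATP, 2 mM DTT, pH 7.6, 1% glycerol, with compound, heated 1° C./min to 70° C. under light-scattering monitoring. Tagg taken at curve inflection; ΔTagg is compound Tagg minus mean DMSO-control Tagg, binned A (≤5° C.), B (>5-≤10° C.), C (>10-≤25° C.).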

[2] = target: T2, CFTR (Homo sapiens, UniProt P13569, DEL508-508); test: TECC24 AUC fold over DMSO @10 μM, CFTR-mediated transepithelial chloride transport in CF-HBE cells; type: cell-based; details: test agent AUC divided by DMSO vehicle AUC, primary CF-HBE cells, ΔF508 homozygous donor, 48 hours incubation
T2 construct: Primary human bronchial epithelial cells from a ΔF508 homozygous CF donor; host or cells: primary human bronchial epithelial cells (CF-HBE), ΔF508 homozygous donor
T2 sequence (P13569 with tags, fused parts or gaps DEL508-508): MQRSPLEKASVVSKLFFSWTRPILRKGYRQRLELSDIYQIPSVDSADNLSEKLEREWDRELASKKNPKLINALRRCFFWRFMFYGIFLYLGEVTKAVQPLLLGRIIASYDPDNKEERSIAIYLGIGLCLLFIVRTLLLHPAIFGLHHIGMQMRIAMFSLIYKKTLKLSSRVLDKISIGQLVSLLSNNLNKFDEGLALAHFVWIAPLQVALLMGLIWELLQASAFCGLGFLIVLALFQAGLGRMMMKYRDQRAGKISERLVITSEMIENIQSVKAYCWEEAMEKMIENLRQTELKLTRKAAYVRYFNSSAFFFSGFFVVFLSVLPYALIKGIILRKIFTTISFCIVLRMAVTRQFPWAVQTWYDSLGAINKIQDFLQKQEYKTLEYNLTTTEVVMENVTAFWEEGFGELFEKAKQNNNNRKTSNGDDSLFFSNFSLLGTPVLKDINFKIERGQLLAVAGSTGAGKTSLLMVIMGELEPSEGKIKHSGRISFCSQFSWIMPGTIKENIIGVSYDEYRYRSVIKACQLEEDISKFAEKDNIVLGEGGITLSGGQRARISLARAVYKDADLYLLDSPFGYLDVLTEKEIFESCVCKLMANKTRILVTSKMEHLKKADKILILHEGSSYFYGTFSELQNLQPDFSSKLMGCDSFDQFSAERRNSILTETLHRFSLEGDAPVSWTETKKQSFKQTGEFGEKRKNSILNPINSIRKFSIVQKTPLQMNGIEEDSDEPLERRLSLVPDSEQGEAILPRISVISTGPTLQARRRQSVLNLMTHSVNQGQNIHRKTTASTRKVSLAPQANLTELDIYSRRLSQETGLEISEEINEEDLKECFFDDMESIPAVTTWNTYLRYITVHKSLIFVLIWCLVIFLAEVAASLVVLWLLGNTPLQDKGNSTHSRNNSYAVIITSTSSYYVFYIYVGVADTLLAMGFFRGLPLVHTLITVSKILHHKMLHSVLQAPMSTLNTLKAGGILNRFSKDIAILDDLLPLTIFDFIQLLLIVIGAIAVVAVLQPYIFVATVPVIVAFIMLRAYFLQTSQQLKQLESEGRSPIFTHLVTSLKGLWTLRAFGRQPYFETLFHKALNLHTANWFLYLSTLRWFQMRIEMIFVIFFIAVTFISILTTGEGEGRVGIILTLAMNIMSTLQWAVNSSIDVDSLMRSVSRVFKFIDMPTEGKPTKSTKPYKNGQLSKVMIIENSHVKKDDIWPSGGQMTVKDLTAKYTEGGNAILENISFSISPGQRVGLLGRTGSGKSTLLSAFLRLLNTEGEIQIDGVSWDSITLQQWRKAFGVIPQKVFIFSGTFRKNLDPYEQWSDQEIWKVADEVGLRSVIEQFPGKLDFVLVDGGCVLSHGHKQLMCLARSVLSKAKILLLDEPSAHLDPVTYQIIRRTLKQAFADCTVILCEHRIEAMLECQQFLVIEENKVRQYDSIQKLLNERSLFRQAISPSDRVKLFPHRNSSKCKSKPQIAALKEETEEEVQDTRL
Method: Example 387. TECC24 AUC Fold Over DMSO @10 μM
The effects of a test agent on CFTR-mediated transepithelial chloride transport is measured using TECC24 recording analysis. Test agents are solubilized in DMSO. Solubilized test agents are mixed with incubation medium containing DMEM/F12, Ultroser G (2%; Crescent Chemical, catalog #67042), Hyclone Fetal Clone II (2%; GE Healthcare, catalog #SH30066.02), bovine brain extract (0.25%; Lonza, catalog #CC-4098), insulin (2.5 μg/mL), IL-13 (10 ng/mL), hydrocortisone (20 nM), transferrin (2.5 μg/mL), triiodothyronine (500 nM), ethanolamine (250 nM), epinephrine (1.5 μM), phosphoethanolamine (250 nM), and retinoic acid (10 nM). Primary human bronchial epithelial cells from a ΔF508 homozygous CF donor (CF-HBE cells; from University of North Carolina Cystic Fibrosis Tissue Procurement Center), grown on Transwell HTS 24-well cell culture inserts (Costar, catalog #3378), are exposed to test agents or controls dissolved in incubation medium. The CF-HBE cells are cultured at 36.5° C. for 48 hours before TECC24 recordings are performed in the presence or absence of test agent, a positive control or vehicle (DMSO).
Following incubation, the transwell cell culture inserts containing the test agent or control-treated CF-HBE cells are loaded onto a TECC24 apparatus (TECC v7 or MTECC v2; EP Design) to record the transepithelial voltage (VT) and resistance (TEER) using 4 AgCl electrodes per well configured in current-clamp mode. The apical and basolateral bath solutions both contain (in mM) 140 NaCl, 5 KCl, 2 CaCl2, 1 MgCl2, 10 Hepes, and 10 glucose (adjusted to pH 7.4 with NaOH). To inhibit basal Na+ absorption, the ENaC inhibitor benzamil (10 μM) is added to the bath. Then, the adenylate cyclase activator, forskolin (10 μM), is added to the bath to activate CFTR. The forskolin-stimulated Cl— transport is halted by addition of CFTR inhibitor-172 (20 μM) to the bath at the end of the experiment to confirm specificity. VT and TEER recordings are digitally acquired at routine intervals using TECC or MTECC software (EP Design). VT and TEER are transformed into equivalent transepithelial Cl— current (IEQ), and the Area Under the Curve (AUC) of the IEQ time course between forskolin and CFTR inhibitor-172 addition is generated using Excel (Microsoft). Efficacy is expressed as the ratio of the test agent AUC divided by vehicle AUC. EC50s based on AUC are generated using the non-linear regression log(agonist) vs. response function in Prism software (Graphpad) with HillSlope fixed=1.
If a test agent increases the AUC of the forskolin-stimulated IEQ relative to vehicle in CF-HBE cells, and this increase is inhibited by CFTR inhibitor-172, then the test agent is considered a CFTR corrector. TECC assay efficacy is expressed as the ratio of the test agent AUC divided by DMSO vehicle AUC. As set forth in Table 2 below, a TECC value less than 12 is marked “A”; a value between 12-20 is marked “B”; a value between 20 and 80 is marked “C”. […]

| SMILES | DSLS 3D (100 μM ΔT) [1] | TECC (AUC, 10 μM) [2] |
| --- | --- | --- |
| Cn1nc2nc1-c1cc(ccc1F)Oc1c(F)cc3[nH]ccc3c1CCS(=O)(=O)CCC(F)(F)CCC2(C)c1cccc(CCC(=O)O)c1 (single isomer, unassigned) [Compound 2A, 3-[3-(9,9,22,28-Tetrafluoro-3,6-dimethyl-12,12-dioxo-24-oxa-12λ^6-thia-3,4,19,30-tetrazapentacyclo[23.3.1.1^2,5.0^15,23.0^16,20]triaconta-1(29),2(30),4,15,17,20,22,25,27-nonaen-6-yl)phenyl]propanoic Acid] | B (a value above 5 °C and less than or equal to 10 °C is marked “B”) | B (a value between 12-20 is marked “B”) |
| Cn1nc2nc1-c1cc(ccc1F)Oc1c(F)cc3[nH]ccc3c1CCS(=O)(=O)CCC(F)(F)CCC2(C)c1cccc(CCC(=O)O)c1 (single isomer, unassigned) [Compound 2B, 3-[3-(9,9,22,28-Tetrafluoro-3,6-dimethyl-12,12-dioxo-24-oxa-12λ^6-thia-3,4,19,30-tetrazapentacyclo[23.3.1.1^2,5.0^15,23.0^16,20]triaconta-1(29),2(30),4,15,17,20,22,25,27-nonaen-6-yl)phenyl]propanoic Acid] | A (an ΔTagg value less than or equal to 5 °C is marked “A”) | A (a TECC value less than 12 is marked “A”) |
| Cn1nc2nc1-c1cc(ccc1F)Oc1c(F)cc3[nH]ccc3c1CCS(=O)(=O)CC(C)(C)CCCC2(C)c1cccc(CCO)c1 (single isomer, unassigned) [Compound 4A, 2-[3-(22,28-Difluoro-3,6,10,10-tetramethyl-12,12-dioxo-24-oxa-12λ^6-thia-3,4,19,30-tetrazapentacyclo[23.3.1.1^2,5.0^15,23.0^16,20]triaconta-1(29),2(30),4,15,17,20,22,25,27-nonaen-6-yl)phenyl]ethanol] | C (a value greater than 10 °C and less than or equal to 25 °C is marked “C”) | C (a value between 20 and 80 is marked “C”) |
| Cn1nc2nc1-c1cc(ccc1F)Oc1c(F)cc3[nH]ccc3c1CCS(=O)(=O)CC(C)(C)CCCC2(C)c1cccc(CCO)c1 (single isomer, unassigned) [Compound 4B, 2-[3-(22,28-Difluoro-3,6,10,10-tetramethyl-12,12-dioxo-24-oxa-12λ^6-thia-3,4,19,30-tetrazapentacyclo[23.3.1.1^2,5.0^15,23.0^16,20]triaconta-1(29),2(30),4,15,17,20,22,25,27-nonaen-6-yl)phenyl]ethanol] | A (an ΔTagg value less than or equal to 5 °C is marked “A”) | A (a TECC value less than 12 is marked “A”) |
| Cn1nc2nc1-c1cc(ccc1F)Oc1c(F)cc3[nH]ccc3c1CCS(=O)(=O)CC(C)(C)OCCC2(C)c1cccc(CC(=O)O)c1 (single isomer, unassigned) [Compound 5A, 2-[3-(22,28-Difluoro-3,6,10,10-tetramethyl-12,12-dioxo-9,24-dioxa-12λ^6-thia-3,4,19,30-tetrazapentacyclo[23.3.1.12,5.015,23.016,20]triaconta-1(29),2(30),4,15,17,20,22,25,27-nonaen-6-yl)phenyl]acetic Acid] | C (a value greater than 10 °C and less than or equal to 25 °C is marked “C”) | B (a value between 12-20 is marked “B”) |
| Cn1nc2nc1-c1cc(ccc1F)Oc1c(F)cc3[nH]ccc3c1CCS(=O)(=O)CC(C)(C)OCCC2(C)c1cccc(CC(=O)O)c1 (single isomer, unassigned) [Compound 5B, 2-[3-(22,28-Difluoro-3,6,10,10-tetramethyl-12,12-dioxo-9,24-dioxa-12λ^6-thia-3,4,19,30-tetrazapentacyclo[23.3.1.12,5.015,23.016,20]triaconta-1(29),2(30),4,15,17,20,22,25,27-nonaen-6-yl)phenyl]acetic Acid] | B (a value above 5 °C and less than or equal to 10 °C is marked “B”) | B (a value between 12-20 is marked “B”) |
| C[C@H](Cc1cccc(C2(C)CCCC(C)(C)CS(=O)(=O)CCc3c(c(F)cc4[nH]ccc34)Oc3ccc(F)c(c3)-c3nc2nn3C)c1)C(=O)O (single isomer, unassigned) [Compound 6A] | C (a value greater than 10 °C and less than or equal to 25 °C is marked “C”) | B (a value between 12-20 is marked “B”) |
| C[C@H](Cc1cccc(C2(C)CCCC(C)(C)CS(=O)(=O)CCc3c(c(F)cc4[nH]ccc34)Oc3ccc(F)c(c3)-c3nc2nn3C)c1)C(=O)O (single isomer, unassigned) [Compound 6B] | A (an ΔTagg value less than or equal to 5 °C is marked “A”) | C (a value between 20 and 80 is marked “C”) |
| C[C@@H](Cc1cccc([C@@]2(C)CCCC(C)(C)CS(=O)(=O)CCc3c(c(F)cc4[nH]ccc34)Oc3ccc(F)c(c3)-c3nc2nn3C)c1)C(=O)O (single isomer, unassigned) [Compound 7] | C (a value greater than 10 °C and less than or equal to 25 °C is marked “C”) | B (a value between 12-20 is marked “B”) |
| [2H]C([2H])([2H])C1(c2cccc(CC(C)C(=O)O)c2)COCC(C)(C)CS(=O)(=O)CCc2c(c(F)cc3[nH]ccc23)Oc2ccc(F)c(c2)-c2nc1nn2C (single isomer, unassigned) [Compound 8A, 3-[3-[22,28-difluoro-3,10,10-trimethyl-12,12-dioxo-6-(trideuteriomethyl)-8,24-dioxa-12lambda6-thia-3,4,19,30-tetrazapentacyclo[23.3.1.12,5.015,23.016,20]triaconta-1(29),2(30),4,15,17,20,22,25,27-nonaen-6-yl]phenyl]-2-methyl-propanoic acid] | C (a value greater than 10 °C and less than or equal to 25 °C is marked “C”) | B (a value between 12-20 is marked “B”) |
| [2H]C([2H])([2H])C1(c2cccc(CC(C)C(=O)O)c2)COCC(C)(C)CS(=O)(=O)CCc2c(c(F)cc3[nH]ccc23)Oc2ccc(F)c(c2)-c2nc1nn2C (single isomer, unassigned) [Compound 8B, 3-[3-[22,28-difluoro-3,10,10-trimethyl-12,12-dioxo-6-(trideuteriomethyl)-8,24-dioxa-12lambda6-thia-3,4,19,30-tetrazapentacyclo[23.3.1.12,5.015,23.016,20]triaconta-1(29),2(30),4,15,17,20,22,25,27-nonaen-6-yl]phenyl]-2-methyl-propanoic Acid] | A (an ΔTagg value less than or equal to 5 °C is marked “A”) | A (a TECC value less than 12 is marked “A”) |
| [2H]C([2H])([2H])C1(c2cccc(CC(C)C(=O)O)c2)CCCC(C([2H])([2H])[2H])(C([2H])([2H])[2H])CS(=O)(=O)CCc2c(c(F)cc3[nH]ccc23)Oc2ccc(F)c(c2)-c2nc1nn2C (single isomer, unassigned) [Compound 9A, 3-[3-[22,28-difluoro-3-methyl-12,12-dioxo-6,10,10-tris(trideuteriomethyl)-24-oxa-12lambda6-thia-3,4,19,30-tetrazapentacyclo[23.3.1.12,5.015,23.016,20]triaconta-1(29),2(30),4,15,17,20,22,25,27-nonaen-6-yl]phenyl]-2-methyl-propanoic Acid] | C (a value greater than 10 °C and less than or equal to 25 °C is marked “C”) | A (a TECC value less than 12 is marked “A”) |
